{"source": "patent US10138237B2", "about": "“1,2,4-triazolo[4,3-a]pyridine compounds and their use as positive allosteric modulators of mGluR2 receptors” (Janssen Pharmaceutica NV, priority 2014, dated 2018)", "key": {"[1]": {"biological_target": "T1, human mGlu2 receptor (Homo sapiens, UniProt Q14416)", "T1 construct": "expressed in transfected cells; host or cells: CHO cells (membrane preparation)", "T1 sequence (Q14416 19-872)": "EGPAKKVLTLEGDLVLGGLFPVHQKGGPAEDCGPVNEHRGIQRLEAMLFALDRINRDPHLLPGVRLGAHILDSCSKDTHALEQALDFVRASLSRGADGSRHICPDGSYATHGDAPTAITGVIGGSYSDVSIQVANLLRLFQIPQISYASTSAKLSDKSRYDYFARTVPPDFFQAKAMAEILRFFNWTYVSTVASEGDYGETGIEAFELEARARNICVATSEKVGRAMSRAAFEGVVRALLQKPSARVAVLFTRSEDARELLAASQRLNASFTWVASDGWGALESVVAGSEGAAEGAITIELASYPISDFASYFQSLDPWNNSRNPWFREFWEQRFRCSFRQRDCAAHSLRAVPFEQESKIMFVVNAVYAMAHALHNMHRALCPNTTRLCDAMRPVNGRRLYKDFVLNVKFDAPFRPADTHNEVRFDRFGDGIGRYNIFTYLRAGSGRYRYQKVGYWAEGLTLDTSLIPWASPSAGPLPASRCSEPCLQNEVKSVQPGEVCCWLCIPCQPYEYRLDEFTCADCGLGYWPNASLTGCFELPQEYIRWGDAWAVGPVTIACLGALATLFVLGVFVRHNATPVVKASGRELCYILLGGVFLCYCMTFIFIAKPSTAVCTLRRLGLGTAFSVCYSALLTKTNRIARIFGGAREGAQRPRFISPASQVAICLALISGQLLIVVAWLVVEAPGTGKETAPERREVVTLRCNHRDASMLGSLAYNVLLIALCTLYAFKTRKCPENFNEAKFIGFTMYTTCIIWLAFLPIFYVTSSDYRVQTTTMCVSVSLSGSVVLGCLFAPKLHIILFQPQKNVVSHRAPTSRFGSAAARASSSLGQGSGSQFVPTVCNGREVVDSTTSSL", "assay": "[35S]GTPγS binding assay, hmGluR2 PAM", "type": "biochemical", "details": "in presence of EC20 glutamate; for GTPγS - hmGluR2 PAM Emax / Emax: maximal % effect relative to the control glutamate response; for EC50: membranes from CHO cells with human mGlu2 receptor, -log EC50 in M, read-out: GTPγS - hmGluR2 PAM pEC50 (converted)", "source_text": "The compounds provided in the present invention are positive allosteric modulators of mGluR2. These compounds appear to potentiate glutamate responses by binding to an allosteric site other than the glutamate binding site. The response of mGluR2 to a concentration of glutamate is increased when compounds of Formula (I) are present. Compounds of Formula (I) are expected to have their effect substantially at mGluR2 by virtue of their ability to enhance the function of the receptor. The effects of positive allosteric modulators tested at mGluR2 using the [^35S]GTPγS binding assay method described below and which is suitable for the identification of such compounds, and more particularly the compounds according to Formula (I), are shown in Table 8.\n[^35S]GTPγS Binding Assay\nThe [^35S]GTPγS binding assay is a functional membrane-based assay used to study G-protein coupled receptor (GPCR) function whereby incorporation of a non-hydrolysable form of GTP, [^35S]GTPγS (guanosine 5′-triphosphate, labelled with […] ^35S), is measured. The G-protein α subunit catalyzes the exchange of guanosine 5′-diphosphate (GDP) by guanosine triphosphate (GTP) and on activation of the GPCR by an agonist, [^35S]GTPγS, becomes incorporated and cannot be cleaved to continue the exchange cycle (Harper (1998) Current Protocols in Pharmacology 2.6.1-10, John Wiley & Sons, Inc.). […] Here we describe the use of the [^35S]GTPγS binding assay using membranes from cells transfected with the human mGlu2 receptor and adapted from Schaffhauser et al. (Molecular Pharmacology, 2003, […]) for the detection of the positive allosteric modulation (PAM) properties of the compounds of this invention.\nCHO-cells were cultured to pre-confluence and stimulated with 5 mM butyrate for 24 h. Cells were then collected by scraping in PBS and cell suspension was centrifuged (10 min at 4000 RPM in benchtop centrifuge). Supernatant was discarded and pellet gently resuspended in 50 mM Tris-HCl, pH 7.4 by mixing with a vortex and pipetting up and down. The suspension was centrifuged at 16,000 RPM (Sorvall RC-5C plus rotor SS-34) for 10 minutes and the supernatant discarded. The pellet was homogenized in 5 mM Tris-HCl, pH 7.4 using an ultra-turrax homogenizer and centrifuged again (18,000 RPM, 20 min, 4° C.). The final pellet was resuspended in 50 mM Tris-HCl, pH 7.4 and stored at −80° C. in appropriate aliquots before use. Protein concentration was determined by the Bradford method (Bio-Rad, USA) with bovine serum albumin as standard.\nMeasurement of mGluR2 positive allosteric modulatory activity of test compounds was performed as follows. Test compounds and glutamate were diluted in assay buffer containing 10 mM HEPES acid, 10 mM HEPES salt, pH 7.4, 100 mM NaCl, 3 mM MgCl2 and 10 μM GDP. Human mGlu2 receptor-containing membranes were thawed on ice and diluted in assay buffer supplemented with 14 μg/ml saponin. Membranes were pre-incubated with compound alone or together with a predefined (˜EC20) concentration of glutamate (PAM assay) for 30 min at 30° C. After addition of [^35S]GTPγS (f.c. 0.1 nM), assay mixtures were shaken briefly and further incubated to allow [^35S]GTPγS incorporation on activation (30 minutes, 30° C.). Final assay mixtures contained 7 μg of membrane protein in 10 mM HEPES acid, 10 mM HEPES salt, pH 7.4, 100 mM NaCl, 3 mM MgCl2, 10 μM GDP and 2 μg/ml saponin. Total reaction volume was 200 μl. Reactions were terminated by rapid filtration through Unifilter-96 GF/B plates (Perkin Elmer, Massachusetts, USA) using a 96-well filtermate universal harvester. Filters were washed 6 times with ice-cold 10 mM NaH2PO4/10 mM Na2HPO4, pH 7.4. Filters were then air-dried, and 40 μl of liquid scintillation cocktail (Microscint-O) was added to each well. Membrane-bound radioactivity was counted in a Microplate Scintillation and Luminescence Counter from Perkin Elmer. […]"}, "[2]": {"system": "major depressive disorder with anxiety symptoms", "details": "adjunctive administration; adults with major depressive disorder with anxiety symptoms; cited from earlier work"}, "[3]": {"system": "smoking cessation-induced deficits", "details": "versus placebo; cited from earlier work"}, "[4]": {"system": "S-ketamine-induced negative symptoms", "details": "healthy volunteers and patients with predominant negative symptoms of schizophrenia; cited from earlier work"}, "[5]": {"system": "6 Hz (32 mA, 3 s, corneal) limbic seizure in mice", "assay": "Anticonvulsant studies - 6 Hz test in mice", "type": "in vivo", "details": "Mus musculus, Score ≤ 2 (protected), 32 mA for 3 s", "description": "Anticonvulsant Studies—6 Hz Test in Mice\nAt a predefined interval after drug treatment (standard: 0.5 h). individual mice were challenged with sufficient current (32 mA for 3 s; delivered through corneal electrodes) to elicit a limbic seizure. The manifestations of the “psychomotor” seizure were first described by Toman (Toman, J. E. P., 1951, “Neuropharmacologic considerations in psychic seizures” Neurology, 1, 444-460; Toman, J. E. P., Evertett, G. M., Richards, R. K., 1952, “The search for new drugs against epilepsy” Tex. Rep. Biol. Med. 10, 96-104). […] This may be characterized by immobility, or a lack of awareness regarding its environment as it goes directly into behaviours 2 and 3 (forepaw clonus or facial automatisms). The stun posture is most often upright, but the mouse may also fall on its side during a seizure; the fore limbs are often crossed and the hind limbs are spread wide apart. The “stunning” may occasionally be preceded by a few seconds of running with a rolling gait. 2) Forepaw clonus or automatism: usually resembles the mouse repeatedly raising its forepaw and then stomping it onto the ground. This is generally repeated several times, but must be repeated at least twice to be considered present. 3) Facial automatism: in the mouse best resembles jaw chomping or air biting; this also must occur at least twice to be considered present. 4) Elevated or Straub tail, which must be elevated to greater than a 45 degree angle to be considered present. The duration of the seizure varies from 5 to 75 s; at the end of the seizure, the animal rather suddenly resumes normal locomotion and exploratory behaviour. Each of the four above mentioned behaviours was scored as either absent (0) or present (1)."}}, "data": [{"smiles": "CCOc1nc(N2CCC(c3ccn4c(CC5CC5)nnc4c3C(F)(F)F)C2)ncc1Cl", "note": "(single isomer, unassigned) [Co. No. 1a, 7-[(3*R)-1-(5-chloro-4-ethoxy-pyrimidin-2-yl)pyrrolidin-3-yl]-3-(cyclopropylmethyl)-8-(trifluoromethyl)-[1,2,4]triazolo[4,3-a]pyridine]", "values": [{"measurement": "GTPγS - hmGluR2 PAM Emax", "setting": "[1]", "value": 148.44, "unit": "%"}, {"measurement": "EC50", "setting": "[1]", "value": 0.214, "unit": "µM"}, {"measurement": "melting point", "value": 167.64, "unit": "°C"}]}, {"smiles": "CCOCc1nnc2c(C(F)(F)F)c(C3CCN(c4ncc(Cl)c(OCC)n4)C3)ccn12", "note": "(single isomer, unassigned) [Co. No. 2a, 7-[(3*R)-1-(5-chloro-4-ethoxy-pyrimidin-2-yl)pyrrolidin-3-yl]-3-(ethoxymethyl)-8-(trifluoromethyl)-[1,2,4]triazolo[4,3-a]pyridine]", "values": [{"measurement": "GTPγS - hmGluR2 PAM Emax", "setting": "[1]; listed as 2a", "value": 226.905, "unit": "%"}, {"measurement": "EC50", "setting": "[1]", "value": 2.09, "unit": "µM"}]}, {"smiles": "CCCCn1ccc(N2CCC(c3ccccc3)CC2)c(Cl)c1=O", "note": "[JNJ-40411813/ADX71149]", "values": [{"measurement": "efficacy on several secondary outcome measures of both depression and anxiety", "setting": "[2]", "value": "showed efficacy signals"}, {"measurement": "efficacy on the primary outcome measure", "setting": "[2]", "value": "no efficacy signal was detected"}, {"measurement": "effect on craving and smoking cessation-induced deficits in attention and episodic memory", "setting": "[3]", "value": "reduce craving and improve smoking cessation-induced deficits in attention and episodic memory"}, {"measurement": "efficacy in S-ketamine-induced negative symptoms", "setting": "[4]", "value": "showed an efficacy signal"}]}, {"smiles": "CCOCc1nnc2c(C(F)(F)F)c(C3CCN(c4ncc(Cl)c(OCC)n4)C3)ccn12", "note": "(single isomer, unassigned) [Co. No. 2b, 7-[(3*S)-1-(5-chloro-4-ethoxy-pyrimidin-2-yl)pyrrolidin-3-yl]-3-(ethoxymethyl)-8-(trifluoromethyl)-[1,2,4]triazolo[4,3-a]pyridine]", "values": [{"measurement": "GTPγS - hmGluR2 PAM Emax", "setting": "[1]; listed as 2b", "value": 295.62, "unit": "%"}, {"measurement": "EC50", "setting": "[1]", "value": 0.00977, "unit": "µM"}, {"measurement": "ED50", "setting": "[5]; route PO", "value": 20, "unit": "mg/kg"}]}, {"smiles": "CCOCc1nnc2c(C(F)(F)F)c(C3CCN(c4ncc(Cl)c(OCC)n4)C3)ccn12", "note": "(stereo not shown) [Co. No. 2, 7-[1-(5-chloro-4-ethoxy-pyrimidin-2-yl)pyrrolidin-3-yl]-3-(ethoxymethyl)-8-(trifluoromethyl)-[1,2,4]triazolo[4,3-a]pyridine]", "values": [{"measurement": "Emax", "setting": "[1]", "value": 345, "unit": "%"}, {"measurement": "EC50", "setting": "[1]", "value": 0.017, "unit": "µM"}, {"measurement": "melting point", "value": 153.86, "unit": "°C"}]}, {"smiles": "CCOc1nc(N2CCC(c3ccn4c(CC5CC5)nnc4c3C(F)(F)F)C2)ncc1Cl", "note": "(single isomer, unassigned) [Co. No. 1b, 7-[(3*S)-1-(5-chloro-4-ethoxy-pyrimidin-2-yl)pyrrolidin-3-yl]-3-(cyclopropylmethyl)-8-(trifluoromethyl)-[1,2,4]triazolo[4,3-a]pyridine]", "values": [{"measurement": "GTPγS - hmGluR2 PAM Emax", "setting": "[1]", "value": 277.87, "unit": "%"}, {"measurement": "EC50", "setting": "[1]", "value": 0.0038, "unit": "µM"}, {"measurement": "ED50", "setting": "[5]; route PO", "value": 20, "unit": "mg/kg"}, {"measurement": "ED50", "setting": "[5]; route SC", "value": 3.79, "unit": "mg/kg"}, {"measurement": "melting point", "value": 168.29, "unit": "°C"}]}, {"smiles": "CCOc1nc(N2CCC(c3ccn4c(CC5CC5)nnc4c3C(F)(F)F)C2)ncc1Cl", "note": "(stereo not shown) [Co. No. 1, 7-[1-(5-chloro-4-ethoxy-pyrimidin-2-yl)pyrrolidin-3-yl]-3-(cyclopropylmethyl)-8-(trifluoromethyl)-[1,2,4]triazolo[4,3-a]pyridine]", "values": [{"measurement": "Emax", "setting": "[1]", "value": 234, "unit": "%"}, {"measurement": "EC50", "setting": "[1]", "value": 0.00589, "unit": "µM"}]}]}
